Source: PubChem BioAssay (NCI)
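Test compounds were applied to cells in 96-well plates for 48 hours at 5 doses. The concentration for full growth arrest is given as TGI.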

Columns and labels:
Test in all cases: NCI tumour cell line growth inhibition, 48 h
ACHN renal = system: ACHN renal
DLD-1 colon = system: DLD-1 colon
DMS 114 small cell lung = system: DMS 114 small cell lung
EKVX NSCLC = system: EKVX NSCLC
HCC-2998 colon = system: HCC-2998 colon
HCT-116 colon = system: HCT-116 colon
HCT-15 colon = system: HCT-15 colon
HOP-62 NSCLC = system: HOP-62 NSCLC
HT29 colon = system: HT29 colon
KM12 colon = system: KM12 colon
KM20L2 colon = system: KM20L2 colon
LOX IMVI melanoma = system: LOX IMVI melanoma
LXFL 529 NSCLC = system: LXFL 529 NSCLC
M14 melanoma = system: M14 melanoma
M19-MEL melanoma = system: M19-MEL melanoma
MALME-3M melanoma = system: MALME-3M melanoma
NCI-H226 lung = system: NCI-H226 lung
NCI-H23 lung = system: NCI-H23 lung
NCI-H460 lung = system: NCI-H460 lung
OVCAR-3 ovarian = system: OVCAR-3 ovarian
OVCAR-4 ovarian = system: OVCAR-4 ovarian
OVCAR-5 ovarian = system: OVCAR-5 ovarian
RXF 393 renal = system: RXF 393 renal
SF-268 CNS = system: SF-268 CNS
SF-539 CNS = system: SF-539 CNS
SK-MEL-2 melanoma = system: SK-MEL-2 melanoma
SK-MEL-28 melanoma = system: SK-MEL-28 melanoma
SK-OV-3 ovarian = system: SK-OV-3 ovarian
SN12C renal = system: SN12C renal
SNB-19 CNS = system: SNB-19 CNS
SNB-75 CNS = system: SNB-75 CNS
SNB-78 CNS = system: SNB-78 CNS
TK-10 renal = system: TK-10 renal
U251 CNS = system: U251 CNS
UACC-257 melanoma = system: UACC-257 melanoma
UACC-62 melanoma = system: UACC-62 melanoma
UO-31 renal = system: UO-31 renal
XF 498 CNS = system: XF 498 CNS
786-0 renal = system: 786-0 renal
A498 renal = system: A498 renal
A549 NSCLC = system: A549 NSCLC
BT-549 breast = system: BT-549 breast
CAKI-1 renal = system: CAKI-1 renal
CCRF-CEM leukemia = system: CCRF-CEM leukemia
COLO 205 colon = system: COLO 205 colon
DU-145 prostate = system: DU-145 prostate
HL-60(TB) leukemia = system: HL-60(TB) leukemia
HOP-92 NSCLC = system: HOP-92 NSCLC
HS 578T breast = system: HS 578T breast
IGROV1 ovarian = system: IGROV1 ovarian
K-562 leukemia = system: K-562 leukemia
MCF7 breast = system: MCF7 breast
MDA-MB-231 breast = system: MDA-MB-231 breast
MDA-MB-435 = system: MDA-MB-435
MDA-N = system: MDA-N
MOLT-4 leukemia = system: MOLT-4 leukemia
NCI-H522 lung = system: NCI-H522 lung
NCI/ADR-RES ovarian = system: NCI/ADR-RES ovarian
OVCAR-8 ovarian = system: OVCAR-8 ovarian
PC-3 prostate = system: PC-3 prostate
RPMI-8226 leukemia = system: RPMI-8226 leukemia
SF-295 CNS = system: SF-295 CNS
SK-MEL-5 melanoma = system: SK-MEL-5 melanoma
SR leukemia = system: SR leukemia
SW-620 colon = system: SW-620 colon
T-47D breast = system: T-47D breast

Measured: TGI

CC(C)C(C)C(C)(C)P(C)(C)=O (stereo unspecified)
not listed: 786-0 renal | A498 renal | A549 NSCLC | BT-549 breast | CAKI-1 renal | CCRF-CEM leukemia | COLO 205 colon | DU-145 prostate | HL-60(TB) leukemia | HOP-92 NSCLC | HS 578T breast | IGROV1 ovarian | K-562 leukemia | MCF7 breast | MDA-MB-231 breast | MDA-MB-435 | MDA-N | MOLT-4 leukemia | NCI-H522 lung | NCI/ADR-RES ovarian | OVCAR-8 ovarian | PC-3 prostate | RPMI-8226 leukemia | SF-295 CNS | SK-MEL-5 melanoma | SR leukemia | SW-620 colon | T-47D breast
> 100 µM: all other assays above

O=C/C=C/c1ccco1
not listed: DLD-1 colon | DMS 114 small cell lung | KM20L2 colon | LXFL 529 NSCLC | M19-MEL melanoma | NCI-H460 lung | SNB-78 CNS | XF 498 CNS
> 100 µM: all other assays above
